In patent US9833497B2, “Human originated EGF domain proteins and use of the same” (CHENGDU SOURCEBIO LIMITED-LIABILITY COMPANY, priority 2013, dated 2017):

Tests used:
Type in all cases: cell-based
[1] = test system: Proteus mirabilis; experiment: MIC against Gram-negative bacteria: Proteus mirabilis; conditions: for MIC against P. mirabilis / MIC (μg/mL) P. mirabilis / MIC P. mirabilis: 5×10^5 CFU/mL
Outline: (§1)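 Two-fold serial dilutions of each purified human EGF domain protein, three replicate wells per level, were combined with bacteria at a final 5×10^5 CFU/mL in LB. Cultures were shaken at 175 rpm, 37° C. The MIC was taken as the minimum concentration preventing growth.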

[2] = test system: E. coli BL21; experiment: MIC against Gram-negative bacteria: E. coli BL21; conditions: for MIC against E. coli BL21 / MIC (μg/mL) E. coli BL21 / MIC E. coli BL21: 5×10^5 CFU/mL
Outline: as §1

[3] = test system: Pseudomonas aeruginosa; experiment: MIC against Gram-negative bacteria: Pseudomonas aeruginosa; conditions: for MIC against P. aeruginosa / MIC (μg/mL) P. aeruginosa / MIC P. aeruginosa: 5×10^5 CFU/mL
Outline: as §1

[4] = test system: Moraxella catarrhalis; experiment: MIC against Gram-negative bacteria: Moraxella catarrhalis; conditions: for MIC against M. catarrhalis / MIC (μg/mL) M. catarrhalis / MIC M. catarrhalis: 5×10^5 CFU/mL
Outline: as §1

[5] = test system: Proteus vulgaris; experiment: MIC against Gram-negative bacteria: Proteus vulgaris; conditions: for MIC against P. vulgaris / MIC (μg/mL) P. vulgaris / MIC P. vulgaris: 5×10^5 CFU/mL
Outline: as §1

[6] = test system: Aeromonas hydrophila; experiment: MIC against Gram-negative bacteria: Aeromonas hydrophila; conditions: for MIC against A. hydrophila / MIC (μg/mL) A. hydrophila / MIC A. hydrophila: 5×10^5 CFU/mL
Outline: as §1

[7] = test system: Serratia marcescens; experiment: MIC against Gram-negative bacteria: Serratia marcescens; conditions: for MIC against S. marcescens / MIC (μg/mL) S. marcescens / MIC S. marcescens: 5×10^5 CFU/mL
Outline: as §1

[8] = test system: E. coli DH5α; experiment: Antibacterial activity: MIC and growth curve against E. coli DH5α in 96-well plate; conditions: minimal inhibitory concentration against E. coli DH5α; 96-well plate, 5×10^5 CFU/mL, 37° C., judged after 8 h
Outline: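 Log-phase DH5α (OD600 about 0.5, 37° C, 185 rpm in LB) was pelleted, resuspended in fresh LB and seeded at 5×10^5 CFU/mL with recombinant protein at 50, 25 and 12.5 μg/mL (two-fold series), in triplicate. Plates were shaken at 175 rpm, 37° C, and OD600 was read every 30 min. MIC was the lowest concentration with no growth.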

[9] = test system: Enterobacter cloacae; experiment: MIC against Gram-negative bacteria: Enterobacter cloacae; conditions: for MIC against E. cloacae / MIC (μg/mL) E. cloacae / MIC E. cloacae: 5×10^5 CFU/mL
Outline: as §1

[10] = test system: Klebsiella pneumonia; experiment: MIC against Gram-negative bacteria: Klebsiella pneumonia; conditions: for MIC against K. pneumonia / MIC (μg/mL) K. pneumonia / MIC K. pneumonia: 5×10^5 CFU/mL
Outline: as §1

[11] = test system: Citrobacter diversus; experiment: MIC against Gram-negative bacteria: Citrobacter diversus; conditions: for MIC against C. diversus / MIC (μg/mL) C. diversus / MIC C. diversus: 5×10^5 CFU/mL
Outline: as §1

[12] = E. coli BL21, 10 h cultivation at 37° C.
[13] = P. mirabilis, 10 h cultivation at 37° C.
[14] = P. aeruginosa, 10 h cultivation at 37° C.
[15] = M. catarrhalis, 10 h cultivation at 37° C.
[16] = P. vulgaris, 10 h cultivation at 37° C.
[17] = A. hydrophila, 10 h cultivation at 37° C.
[18] = S. marcescens, 10 h cultivation at 37° C.
[19] = E. cloacae, 10 h cultivation at 37° C.
[20] = K. pneumonia, 10 h cultivation at 37° C.
[21] = C. diversus, 10 h cultivation at 37° C.
[22] = 10 h cultivation at 37° C., two-fold serial dilution

Substance | MIC against P. mirabilis ([1]; 96-well plate, 37° C., 10 h) [µg/mL] | MIC against E. coli BL21 ([2]; 96-well plate, 37° C., 10 h) [µg/mL] | MIC against P. aeruginosa ([3]; 96-well plate, 37° C., 10 h) [µg/mL] | MIC against M. catarrhalis ([4]; 96-well plate, 37° C., 10 h) [µg/mL] | MIC against P. vulgaris ([5]; 96-well plate, 37° C., 10 h) [µg/mL] | MIC against A. hydrophila ([6]; 96-well plate, 37° C., 10 h) [µg/mL] | MIC against S. marcescens ([7]; 96-well plate, 37° C., 10 h) [µg/mL] | MIC [8] [µg/mL] | MIC against E. cloacae ([9]; 96-well plate, 37° C., 10 h) [µg/mL] | MIC against K. pneumonia ([10]; 96-well plate, 37° C., 10 h) [µg/mL] | MIC against C. diversus ([11]; 96-well plate, 37° C., 10 h) [µg/mL] | MIC (μg/mL) P. mirabilis [1, 13] [µg/mL] | MIC (μg/mL) E. coli BL21 [2, 12] [µg/mL] | MIC (μg/mL) P. aeruginosa [3, 14] [µg/mL] | MIC (μg/mL) M. catarrhalis [4, 15] [µg/mL] | MIC (μg/mL) P. vulgaris [5, 16] [µg/mL] | MIC (μg/mL) A. hydrophila [6, 17] [µg/mL] | MIC (μg/mL) S. marcescens [7, 18] [µg/mL] | MIC (μg/mL) E. cloacae [9, 19] [µg/mL] | MIC (μg/mL) K. pneumonia [10, 20] [µg/mL] | further results
PRT549 (CDCSGNGDPNLLFSDCDPLTGACRGCLRHTTGPRCEICAPGFYGNALLPGNCTR; listed as Homo sapiens) | 12.5 | 50 | 12.5 | 25 | 25 | 50 | 12.5 | 12.5 | 12.5 | 50 | 12.5 |  |  |  |  |  |  |  |  |  | 
PRT1483 (DIDECVTSSCEGHCVNTEGGFVCECGPGMQLSADRHSCQ; listed as Homo sapiens) |  |  |  |  |  |  |  | 12.5 |  |  |  |  |  |  |  |  |  |  |  |  | MIC against P. mirabilis ([1]; Proteus mirabilis, 10 h cultivation at 37° C.): 12.5 µg/mL; MIC against E. coli BL21 [2, 12]: 25 µg/mL; MIC against P. aeruginosa ([3]; Pseudomonas aeruginosa, 10 h cultivation at 37° C.): 50 µg/mL; MIC against M. catarrhalis ([4]; Moraxella catarrhalis, 10 h cultivation at 37° C.): 25 µg/mL; MIC against P. vulgaris ([5]; Proteus vulgaris, 10 h cultivation at 37° C.): 25 µg/mL; MIC against A. hydrophila ([6]; Aeromonas hydrophila, 10 h cultivation at 37° C.): 25 µg/mL; MIC against S. marcescens ([7]; Serratia marcescens, 10 h cultivation at 37° C.): 25 µg/mL; MIC against E. cloacae ([9]; Enterobacter cloacae, 10 h cultivation at 37° C.): 12.5 µg/mL; MIC against K. pneumonia ([10]; Klebsiella pneumonia, 10 h cultivation at 37° C.): 25 µg/mL; MIC against C. diversus ([11]; Citrobacter diversus, 10 h cultivation at 37° C.): 50 µg/mL
PRT948 (DINECLSNPCSSEGSLDCIQLTNDYLCVCRSAFTGRHCE; listed as Homo sapiens) |  |  |  |  |  |  |  | 50 |  |  |  |  |  |  |  |  |  |  |  |  | MIC [1, 13]: 25 µg/mL; MIC [2, 12]: 12.5 µg/mL; MIC [3, 14]: 50 µg/mL; MIC [4, 15]: 50 µg/mL; MIC [5, 16]: 12.5 µg/mL; MIC [6, 17]: 25 µg/mL; MIC [7, 18]: 50 µg/mL; MIC [9, 19]: 50 µg/mL; MIC [10, 20]: 12.5 µg/mL; MIC [11, 21]: 12.5 µg/mL
PRT822 (VRAGCRHSGGCLNGGLCDPHTGRCLCPAGWTGDKCQ; listed as Homo sapiens) |  |  |  |  |  |  |  | 12.5 |  |  |  | 25 | 25 | 50 | 12.5 | 12.5 | 12.5 | 12.5 | 50 | 12.5 | MIC (μg/mL) C. diversus [11, 21]: 12.5 µg/mL
PRT534 (CKCHKAGTVSGTGECRQGDGDCHCKSHVGGDSCDTCEDGYFALEKSNYFGCQG; listed as Homo sapiens) | 25 | 12.5 | 50 | 12.5 | 50 | 12.5 | 25 | 50 | 50 | 12.5 | 50 |  |  |  |  |  |  |  |  |  | 
PRT181 (RADPCAARPCAHGGRCYAHFSGLVCACAPGYMGARCE; listed as Homo sapiens) |  |  |  |  |  |  |  | 25 |  |  |  | 25 | 50 | 25 | 12.5 | 50 | 50 | 25 | 25 | 12.5 | MIC (μg/mL) C. diversus [11, 21]: 25 µg/mL
PRT1085 (HARKCNETAKSYCVNGGVCYYIEGINQLSCKCPNGFFGQRCL; listed as Homo sapiens) |  |  |  |  |  |  |  | 25 |  |  |  |  |  |  |  |  |  |  |  |  | MIC P. mirabilis [1, 22]: 12.5 µg/mL; MIC E. coli BL21 [2, 22]: 12.5 µg/mL; MIC P. aeruginosa [3, 22]: 12.5 µg/mL; MIC M. catarrhalis [4, 22]: 50 µg/mL; MIC P. vulgaris [5, 22]: 50 µg/mL; MIC A. hydrophila [6, 22]: 50 µg/mL; MIC S. marcescens [7, 22]: 25 µg/mL; MIC E. cloacae [9, 22]: 12.5 µg/mL; MIC K. pneumonia [10, 22]: 50 µg/mL; MIC C. diversus [11, 22]: 12.5 µg/mL
PRT521 (CNCNSFGSKSFDCEESGQCWCQPGVTGKKCDRCAHGYFNFQEGGCTA; listed as Homo sapiens) | 50 | 25 | 12.5 | 25 | 25 | 25 | 12.5 | 50 | 50 | 25 | 12.5 |  |  |  |  |  |  |  |  |  | 
PRT144 (DKKVCSSNPCQNGGTCLNLHDSFFCICPPQWKGPLCS; listed as Homo sapiens) |  |  |  |  |  |  |  | 25 |  |  |  | 25 | 50 | 12.5 | 12.5 | 50 | 50 | 12.5 | 12.5 | 50 | MIC (μg/mL) C. diversus [11, 21]: 25 µg/mL
PRT680 (DVNECAEGSPCSPGWCENLPGSFRCTCAQGYAPAPDGRSCL; listed as Homo sapiens) |  |  |  |  |  |  |  | 12.5 |  |  |  |  |  |  |  |  |  |  |  |  | MIC P. mirabilis ([1]; 96-well plate, 37° C., 10 h): 12.5 µg/mL; MIC E. coli BL21 ([2]; 96-well plate, 37° C., 10 h): 25 µg/mL; MIC P. aeruginosa ([3]; 96-well plate, 37° C., 10 h): 25 µg/mL; MIC M. catarrhalis ([4]; 96-well plate, 37° C., 10 h): 50 µg/mL; MIC P. vulgaris ([5]; 96-well plate, 37° C., 10 h): 50 µg/mL; MIC A. hydrophila ([6]; 96-well plate, 37° C., 10 h): 12.5 µg/mL; MIC S. marcescens ([7]; 96-well plate, 37° C., 10 h): 25 µg/mL; MIC E. cloacae ([9]; 96-well plate, 37° C., 10 h): 25 µg/mL; MIC K. pneumonia ([10]; 96-well plate, 37° C., 10 h): 50 µg/mL; MIC C. diversus ([11]; 96-well plate, 37° C., 10 h): 25 µg/mL
